# “Also recorded” adds a separate entry of the source.
# Key:
# [1] = tested on: RUNX2 (DN-RUNX2) in MPCs infected with Ad-NR1H3; assay: DN-RUNX2 assay (AP activity in MPCs); type: cell-based, human; details: Ad-NR1H3 in the presence of T0901317, Ad-DN-RUNX2 vs Ad-luciferase, 6 days post infection
# Method: MPCs are seeded at 1000 cells/well in a 384 well plate and infected the next day with adenoviruses encoding hCAR (MOI 250), Ad-BMP2 (MOIs 6000, 2000, 666) and one of Ad-DN-RUNX2 or Ad-luciferase (MOIs 2000 or 666). Alkaline phosphatase activity is read 6 days post infection.
# MPCs are seeded at 1000 cells/well in a 384 well plate and are infected the next day with adenoviruses encoding hCAR (MOI 250), Ad-BMP2, Ad-ESRRG, Ad-NR5A2, Ad-NR1H3 (MOIs 6000, 2000, 666) and one of Ad-DN-RUNX2 or Ad-luciferase (MOI 1000 or MOIs 2000 and 666) (see FIG. 19 (C)). Alkaline phosphatase activity is read 6 days post infection and raw data are analysed.
# [2] = tested on: osteogenic markers mRNA in MPCs infected with Ad-NR1H3; assay: Osteogenic marker mRNA levels (rtRT-PCR) in MPCs infected with Ad-NR1H3 + T0901317; type: cell-based, human; details: Ad-NR1H3 + T0901317 (1 μM)
# Method: Osteogenic differentiation of MPCs into osteoblasts is accompanied by the up-regulation of osteogenic proteins. […] The MPCs that are used in this study are profiled for the up-regulation of a limited set of osteogenic markers by BMP2. Markers that show differential expression for BMP2 are subsequently tested against mRNA derived from Ad-NR5A2 infected cells or derived from Ad-NR1H3+T0901317 treated cells. 100,000 MPCs are seeded in each well of a 6 well plate in 2 ml MPC medium, containing 10% FCS. The next day, after incubation at 37° C., 10% CO2 in a humidified incubator, cells are co-infected with AdC15-hCAR (final MOI of 750) and Ad-NR5A2, Ad-NR1H3+T0901317 (1 μM) or Ad-BMP2 (positive control) or Ad-eGFP or Ad-luciferase as negative controls (final MOIs of 1250 and 2500). Cells are incubated at 37° C., 10% CO2 in a humidified incubator for a further six days unless cells are already harvested for RNA isolation. Virus is removed and replaced by 2 ml fresh OS medium (proprietary medium containing 10% FCS). Over the next 3 weeks, medium is refreshed 3 times per 2 weeks. Every other time, medium is refreshed half or completely. Monolayers are harvested at several time points (see FIG. 15), total RNA is harvested and quantified and rtRT-PCRs are run as follows: monolayers are washed with ice cold PBS and harvested by adding SV RNA Lysis Buffer. Total RNA is prepared using the SV Total RNA isolation System (Promega, Cat # Z3100). RNA concentration is measured with the Ribogreen RNA Quantification kit (Molecular Probes, Leiden, The Netherlands, Cat No. R-11490). cDNA synthesis is performed using 20 ng total RNA per reaction using the TaqMan Universal PCR Master Mix, No AmpErase UNG, kit (Applied Biosystems, Warrington, UK, Part number 4324018). For each reverse transcriptase (RT) reaction a minus-RT reaction (negative control: no enzyme included in the reaction) is performed. The real-time reverse transcriptase (rtRT)-PCR reaction is performed with gene specific primers on both cDNA and minus-RT samples, using the SYBR Green PCR Master Mix (Applied Biosystems, Warrington, UK, Part number 4309155). Primers are quality controlled by performing PCR reactions on human genomic DNA and on plasmids containing the cDNA encoded by the gene studied if available. If the quality is unsatisfactory, additional primers are designed or validated primer sets are purchased (ABI). For the normalization of the expression levels a RT-PCR reaction is performed on human β-actin using the Human β-actin kit (Applied Biosystems, Warrington, UK, Part number 4310881E). The following program is run on a real-time PCR apparatus (ABI PRISM 7000 Sequence Detection System): 10 min at 25° C., 30 min at 48° C., 5 min at 95° C.
# Expression levels for osteogenic marker genes are first normalized for beta-actin levels. The resulting data for Ad-BMP2, Ad-NR5A2 and Ad-NR1H3+T0901317 (1 μM) samples are then compared to those of Ad-eGFP or Ad-luciferase negative control samples, harvested at the same time points, for cells infected at the same MOI.
# [3] = up-regulated if 4-fold higher than negative control, one or more time points
structure (smiles),measurement,setting,value
"O=S(=O)(c1ccccc1)N(CC(F)(F)F)c1ccc(C(O)(C(F)(F)F)C(F)(F)F)cc1 [T0901317, N-(2,2,2-trifluoroethyl)-N-[4-[2,2,2-trifluoro-1-hydroxy-1-(trifluoromethyl)ethyl]phenyl]-benzenesulfonamide]",up-regulation of AP activity upon overexpression of DN-RUNX2,[1],overexpression of DN-RUNX2 significantly reduces the up-regulation of AP activity; also recorded: DN-RUNX2 interferes with induction of AP activity
same,BAP mRNA expression,[2]; [3],up-regulated expression
same,PTHR1 mRNA expression,[2]; [3],up-regulated expression
same,RANKL mRNA expression,[2]; [3],up-regulated expression
same,aromatase mRNA expression,[2]; [3],up-regulated expression
same,osteopontin mRNA expression,[2]; [3],up-regulated expression
same,mRNA levels of osteogenic markers,[2]; MPCs,up-regulate mRNA levels of osteogenic markers
